In ChEMBL document CHEMBL1129860, “Studies on penam sulfones III. Synthesis and -lactamase inhibitory activity of sodium (6R)-6-(-hydroxybenzyl)-2-methoxyiminomethyl-2-methylpenam-3-carboxylate 1,1-dioxide and sodium 2-acyl-2-methylpenam-3-carboxylate 1,1-dioxide” (1997):

Experiments:
[1] = test system: Citrobacter freundii; assay: In vitro minimal inhibitory concentration (MIC) of compound in combination with Ceftazidime (CAZ) showed synergic activity against Citrobacter freundii 44032; assay type: functional
[2] = test system: Citrobacter freundii; assay: In vitro minimal inhibitory concentration (MIC) of compound in combination with Ceftazidime (CAZ) showed synergic activity against Citrobacter freundii CT 76; assay type: functional
[3] = test system: Klebsiella aerogenes; assay: In vitro minimal inhibitory concentration (MIC) of compound in combination with Ceftazidime (CAZ) showed synergic activity against Enterobacter aerogenes S-97; assay type: functional
[4] = test system: Klebsiella aerogenes; assay: In vitro minimal inhibitory concentration (MIC) of compound in combination with Ceftazidime (CAZ) showed synergic activity against Enterobacter aerogenes 41003; assay type: functional
[5] = test system: Klebsiella aerogenes; assay: In vitro minimal inhibitory concentration (MIC) of compound in combination with Ceftazidime (CAZ) showed synergic activity against Enterobacter aerogenes 41004; assay type: functional
[6] = test system: Klebsiella aerogenes; assay: In vitro minimal inhibitory concentration (MIC) of compound in combination with Ceftazidime (CAZ) showed synergic activity against Enterobacter aerogenes 41006; assay type: functional
[7] = test system: Enterobacter cloacae; assay: In vitro minimal inhibitory concentration (MIC) of compound in combination with Ceftazidime (CAZ) showed synergic activity against Enterobacter cloacae S-65; assay type: functional
[8] = test system: Enterobacter cloacae; assay: In vitro minimal inhibitory concentration (MIC) of compound in combination with Ceftazidime (CAZ) showed synergic activity against Enterobacter cloacae S-11; assay type: functional
[9] = test system: Enterobacter cloacae; assay: In vitro minimal inhibitory concentration (MIC) of compound in combination with Ceftazidime (CAZ) showed synergic activity against Enterobacter cloacae 40011; assay type: functional
[10] = test system: Enterobacter cloacae; assay: In vitro minimal inhibitory concentration (MIC) of compound in combination with Ceftazidime (CAZ) showed synergic activity against Enterobacter cloacae E40002; assay type: functional
[11] = test system: Enterobacter cloacae; assay: In vitro minimal inhibitory concentration (MIC) of compound in combination with Ceftazidime (CAZ) showed synergic activity against Enterobacter cloacae P99; assay type: functional
[12] = test system: Escherichia coli; assay: In vitro minimal inhibitory concentration (MIC) of compound in combination with Ceftazidime (CAZ) showed synergic activity against Escherichia coli TEM 3; assay type: functional
[13] = test system: Escherichia coli; assay: In vitro minimal inhibitory concentration (MIC) of compound in combination with Ceftazidime (CAZ) showed synergic activity against Escherichia coli TEM 7; assay type: functional
[14] = test system: Klebsiella pneumoniae; assay: In vitro minimal inhibitory concentration (MIC) of compound in combination with Ceftazidime (CAZ) showed synergic activity against Klebsiella pneumoniae CTX 1; assay type: functional
[15] = test system: Morganella morganii; assay: In vitro minimal inhibitory concentration (MIC) of compound in combination with Ceftazidime (CAZ) showed synergic activity against Morganella morganii 36014; assay type: functional
[16] = test system: Morganella morganii; assay: In vitro minimal inhibitory concentration (MIC) of compound in combination with Ceftazidime (CAZ) showed synergic activity against Morganella morganii 36030; assay type: functional
[17] = test system: Pseudomonas aeruginosa; assay: In vitro minimal inhibitory concentration (MIC) of compound in combination with Ceftazidime (CAZ) showed synergic activity against Pseudomonas aeruginosa 46220 (DR-2); assay type: functional
[18] = test system: Proteus vulgaris; assay: In vitro minimal inhibitory concentration (MIC) of compound in combination with Ceftazidime (CAZ) showed synergic activity against Proteus vulgaris CT 106; assay type: functional
[19] = test system: Pseudomonas aeruginosa; assay: microbe, parasite or virus in culture
[20] = test system: Pseudomonas aeruginosa; assay: microbe, parasite or virus in culture; remark: listed apart in the source
[21] = test system: Pseudomonas aeruginosa; assay: microbe, parasite or virus in culture; remark: listed apart in the source
Description: In vitro minimal inhibitory concentration (MIC) of compound against Pseudomonas aeruginosa CT-122 in combination with Ceftazidime (CAZ)

[22] = test system: Pseudomonas aeruginosa; assay: microbe, parasite or virus in culture; remark: listed apart in the source
[23] = Morganella morganii, read-out: MIC

## CC(C)(O/N=C(\C(=O)NC1C(=O)N2C(C(=O)[O-])=C(C[n+]3ccccc3)CSC12)c1csc(N)n1)C(=O)O.C[C@]1(Cn2ccnn2)[C@H](C(=O)[O-])N2C(=O)CC2S1(=O)=O.[Na+] (stereo not drawn)
[1]
  MIC: 200 µg/mL
[2]
  MIC: 50 µg/mL
[3]
  MIC: 1 µg/mL
[4]
  MIC: 12.5 µg/mL
[5]
  MIC: 12.5 µg/mL
[6]
  MIC: 100 µg/mL
[7]
  MIC: < 0.25 µg/mL
[8]
  MIC: < 0.25 µg/mL
[9]
  MIC: 3.13 µg/mL
[10]
  MIC: 200 µg/mL
[11]
  MIC: 12.5 µg/mL
[12]
  MIC: ≤ 0.2 µg/mL
[13]
  MIC: ≤ 0.2 µg/mL
[14]
  MIC: 0.78 µg/mL
[15]
  MIC: <=0.2 ug ml-1
[15]; [23]
  MIC: < 0.25 µg/mL
[16]
  MIC: < 0.25 µg/mL
[17]
  MIC: 25 µg/mL
[18]
  MIC: 0.39 µg/mL
[19]
  MIC: 32 µg/mL
[20]
  MIC: 16 µg/mL

## CC(C)(O/N=C(\C(=O)N[C@@H]1C(=O)N2C(C(=O)[O-])=C(C[n+]3ccccc3)CS[C@H]12)c1csc(N)n1)C(=O)O.CC1(C)[C@H](C(=O)[O-])N2C(=O)[C@@H]([C@@H](O)c3ccccc3)[C@H]2S1(=O)=O.[Na+]
[3]
  MIC: 2 µg/mL
[7]
  MIC: < 0.25 µg/mL
[8]
  MIC: < 0.25 µg/mL
[15]; [23]
  MIC: < 0.25 µg/mL
[16]
  MIC: < 0.25 µg/mL
[21]
  MIC: 32 µg/mL
[22]
  MIC: 16 µg/mL
